# Counter-ions that a name gives are not always drawn.
# Columns and labels:
# [1] = molecular target: T1, Phospho-EGFR (Tyr1068) in A431 cells (Homo sapiens, UniProt P00533); experiment: HTRF pEGFR/total EGFR in A431 cells with EGF stimulation; type: cell-based; conditions: ratio pEGFR/total EGFR, compound 2.5 hours then 100 ng/ml EGF 30 mins
# T1 construct: endogenous in cells; host or cells: A431
# Procedure, shortened: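 Values are pEGFR(Tyr1068)/total EGFR HTRF ratios (665/620 nm) given as percent of the 0 μM control. Adhered A431 cells (20,000 per well, 24 h) had 2.5 h compound pretreatment in 0.1% DMSO, then 30 min of 100 ng/ml EGF before lysis.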
# [2] = molecular target: CtermHisTag-mEGFR Wild type (Homo sapiens, UniProt P00533); experiment: biochemical
# [3] = molecular target: T2, Phospho-EGFR (Tyr1068) in H1975 C797S cells (CRISPR-edited EGFR C797S) (Homo sapiens, UniProt P00533, C797S/L858R/T790M); experiment: HTRF pEGFR/total EGFR in H1975 C797S cells; type: cell-based; conditions: ratio pEGFR/total EGFR, compound 3 hours
# T2 construct: host or cells: H1975 C797S (CRISPR-edited)
# Procedure, shortened: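 Readout is the HTRF-measured Tyr1068 phospho-EGFR to total EGFR ratio, normalised to the 0 μM control as percent. Preceding this, CRISPR-edited H1975 C797S cells, plated 24 h earlier, were exposed 3 h to duplicate compound doses in medium with 0.1% DMSO, then lysed on a shaker.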
# [4] = molecular target: T3, Phospho-EGFR (Tyr1068) in H1975 cells (Homo sapiens, UniProt P00533, L858R/T790M); experiment: HTRF pEGFR/total EGFR in H1975 cells; type: cell-based; conditions: ratio pEGFR/total EGFR, compound 3 hours
# T3 construct: host or cells: H1975
# Procedure, shortened: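 Readout is the phospho-EGFR (Tyr1068) to total EGFR HTRF ratio, expressed relative to 0 μM control. Adhered H1975 cells were exposed to compound for 3 hours at 0.1% DMSO, duplicate wells, then lysed for 30 min at room temperature before two-wavelength fluorescence reading.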
# T2 sequence (P00533 25-1210 T790M/C797S/L858R): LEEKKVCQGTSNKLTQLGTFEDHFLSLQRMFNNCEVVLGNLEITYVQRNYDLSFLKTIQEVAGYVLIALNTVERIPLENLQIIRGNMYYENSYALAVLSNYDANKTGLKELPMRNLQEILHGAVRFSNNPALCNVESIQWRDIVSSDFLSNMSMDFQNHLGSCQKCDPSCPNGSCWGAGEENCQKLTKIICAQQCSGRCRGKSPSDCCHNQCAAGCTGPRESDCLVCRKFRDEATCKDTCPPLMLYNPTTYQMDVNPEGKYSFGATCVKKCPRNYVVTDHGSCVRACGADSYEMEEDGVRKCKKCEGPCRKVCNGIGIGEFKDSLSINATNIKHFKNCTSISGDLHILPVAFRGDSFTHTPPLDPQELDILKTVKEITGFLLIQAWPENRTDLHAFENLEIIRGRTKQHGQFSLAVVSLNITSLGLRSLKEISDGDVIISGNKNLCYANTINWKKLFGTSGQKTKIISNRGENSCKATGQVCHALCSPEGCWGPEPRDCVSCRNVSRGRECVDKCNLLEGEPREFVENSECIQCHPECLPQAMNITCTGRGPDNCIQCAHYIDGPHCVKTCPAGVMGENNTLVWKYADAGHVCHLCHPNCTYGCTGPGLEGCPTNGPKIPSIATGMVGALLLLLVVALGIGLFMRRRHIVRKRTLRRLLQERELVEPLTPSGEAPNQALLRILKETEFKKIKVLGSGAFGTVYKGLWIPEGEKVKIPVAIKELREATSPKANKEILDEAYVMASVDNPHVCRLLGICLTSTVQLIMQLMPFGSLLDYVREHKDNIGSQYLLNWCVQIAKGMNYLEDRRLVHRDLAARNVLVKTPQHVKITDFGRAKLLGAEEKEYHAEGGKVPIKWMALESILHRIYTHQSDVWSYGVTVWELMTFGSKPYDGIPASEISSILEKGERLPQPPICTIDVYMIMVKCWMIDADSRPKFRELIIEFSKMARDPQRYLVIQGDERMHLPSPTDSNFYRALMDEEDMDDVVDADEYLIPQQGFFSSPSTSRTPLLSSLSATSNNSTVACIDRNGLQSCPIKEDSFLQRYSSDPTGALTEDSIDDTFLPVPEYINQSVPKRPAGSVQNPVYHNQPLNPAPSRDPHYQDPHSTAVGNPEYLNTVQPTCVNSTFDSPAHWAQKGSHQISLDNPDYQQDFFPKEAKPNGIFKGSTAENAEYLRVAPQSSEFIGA
# T3 sequence (P00533 25-1210 T790M/L858R): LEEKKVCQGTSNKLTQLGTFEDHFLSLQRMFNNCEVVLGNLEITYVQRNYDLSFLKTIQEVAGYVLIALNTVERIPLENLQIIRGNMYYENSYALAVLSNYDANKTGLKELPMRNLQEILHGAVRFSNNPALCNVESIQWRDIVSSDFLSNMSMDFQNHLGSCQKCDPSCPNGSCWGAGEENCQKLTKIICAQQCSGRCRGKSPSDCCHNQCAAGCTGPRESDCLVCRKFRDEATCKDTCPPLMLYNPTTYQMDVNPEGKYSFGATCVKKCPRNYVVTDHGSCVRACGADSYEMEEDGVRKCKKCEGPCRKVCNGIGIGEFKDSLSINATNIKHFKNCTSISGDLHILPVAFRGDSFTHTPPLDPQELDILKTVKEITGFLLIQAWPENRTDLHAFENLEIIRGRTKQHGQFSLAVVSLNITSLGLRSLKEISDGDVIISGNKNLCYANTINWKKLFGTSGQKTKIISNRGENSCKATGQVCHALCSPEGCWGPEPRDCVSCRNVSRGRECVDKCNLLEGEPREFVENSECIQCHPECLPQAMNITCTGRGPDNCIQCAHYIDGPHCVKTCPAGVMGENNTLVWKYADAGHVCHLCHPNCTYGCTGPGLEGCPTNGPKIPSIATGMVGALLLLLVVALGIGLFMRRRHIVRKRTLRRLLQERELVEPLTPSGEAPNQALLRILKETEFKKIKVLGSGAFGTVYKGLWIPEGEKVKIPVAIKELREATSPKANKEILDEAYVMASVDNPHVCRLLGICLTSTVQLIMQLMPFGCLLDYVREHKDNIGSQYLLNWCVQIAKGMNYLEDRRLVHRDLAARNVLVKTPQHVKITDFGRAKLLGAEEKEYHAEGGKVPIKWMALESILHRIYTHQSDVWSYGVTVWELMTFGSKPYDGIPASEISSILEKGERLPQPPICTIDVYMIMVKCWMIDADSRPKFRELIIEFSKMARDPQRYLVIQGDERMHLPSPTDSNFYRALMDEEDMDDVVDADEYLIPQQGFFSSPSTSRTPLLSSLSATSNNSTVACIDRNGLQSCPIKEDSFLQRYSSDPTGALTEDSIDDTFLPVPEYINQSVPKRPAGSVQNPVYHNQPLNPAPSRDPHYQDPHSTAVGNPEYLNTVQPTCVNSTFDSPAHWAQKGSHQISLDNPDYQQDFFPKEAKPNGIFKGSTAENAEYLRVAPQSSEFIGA
# T1 sequence (P00533 25-1210): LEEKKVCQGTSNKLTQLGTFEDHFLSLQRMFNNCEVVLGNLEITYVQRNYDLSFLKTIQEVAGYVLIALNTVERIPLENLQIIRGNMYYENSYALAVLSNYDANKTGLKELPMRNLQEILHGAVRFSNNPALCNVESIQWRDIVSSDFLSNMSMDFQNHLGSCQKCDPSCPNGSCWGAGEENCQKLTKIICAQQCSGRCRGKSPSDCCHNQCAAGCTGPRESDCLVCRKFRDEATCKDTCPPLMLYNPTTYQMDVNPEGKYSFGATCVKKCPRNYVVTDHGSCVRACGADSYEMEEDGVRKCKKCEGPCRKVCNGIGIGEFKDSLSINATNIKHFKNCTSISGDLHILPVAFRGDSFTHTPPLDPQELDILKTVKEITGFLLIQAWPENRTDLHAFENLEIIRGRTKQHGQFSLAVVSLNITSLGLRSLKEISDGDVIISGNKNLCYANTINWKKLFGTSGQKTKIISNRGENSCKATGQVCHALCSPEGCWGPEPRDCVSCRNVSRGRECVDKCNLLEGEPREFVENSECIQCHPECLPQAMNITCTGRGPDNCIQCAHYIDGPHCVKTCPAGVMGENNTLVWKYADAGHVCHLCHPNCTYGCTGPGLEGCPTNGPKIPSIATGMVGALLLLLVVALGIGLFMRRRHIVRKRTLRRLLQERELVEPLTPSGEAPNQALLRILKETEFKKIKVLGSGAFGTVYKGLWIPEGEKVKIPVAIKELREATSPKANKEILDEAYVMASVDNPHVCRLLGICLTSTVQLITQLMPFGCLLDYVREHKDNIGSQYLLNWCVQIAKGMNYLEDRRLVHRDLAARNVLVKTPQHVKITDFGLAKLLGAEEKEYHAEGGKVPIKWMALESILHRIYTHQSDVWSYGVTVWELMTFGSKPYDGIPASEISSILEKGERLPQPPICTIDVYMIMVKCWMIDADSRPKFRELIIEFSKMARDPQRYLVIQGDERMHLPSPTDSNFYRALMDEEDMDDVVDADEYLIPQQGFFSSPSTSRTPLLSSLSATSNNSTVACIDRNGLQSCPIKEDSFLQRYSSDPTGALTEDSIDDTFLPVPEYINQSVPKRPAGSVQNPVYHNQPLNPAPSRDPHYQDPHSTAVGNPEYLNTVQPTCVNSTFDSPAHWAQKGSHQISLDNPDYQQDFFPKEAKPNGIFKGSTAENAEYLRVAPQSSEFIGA
# Sequence of CtermHisTag-mEGFR Wild type (P00533 whole entry): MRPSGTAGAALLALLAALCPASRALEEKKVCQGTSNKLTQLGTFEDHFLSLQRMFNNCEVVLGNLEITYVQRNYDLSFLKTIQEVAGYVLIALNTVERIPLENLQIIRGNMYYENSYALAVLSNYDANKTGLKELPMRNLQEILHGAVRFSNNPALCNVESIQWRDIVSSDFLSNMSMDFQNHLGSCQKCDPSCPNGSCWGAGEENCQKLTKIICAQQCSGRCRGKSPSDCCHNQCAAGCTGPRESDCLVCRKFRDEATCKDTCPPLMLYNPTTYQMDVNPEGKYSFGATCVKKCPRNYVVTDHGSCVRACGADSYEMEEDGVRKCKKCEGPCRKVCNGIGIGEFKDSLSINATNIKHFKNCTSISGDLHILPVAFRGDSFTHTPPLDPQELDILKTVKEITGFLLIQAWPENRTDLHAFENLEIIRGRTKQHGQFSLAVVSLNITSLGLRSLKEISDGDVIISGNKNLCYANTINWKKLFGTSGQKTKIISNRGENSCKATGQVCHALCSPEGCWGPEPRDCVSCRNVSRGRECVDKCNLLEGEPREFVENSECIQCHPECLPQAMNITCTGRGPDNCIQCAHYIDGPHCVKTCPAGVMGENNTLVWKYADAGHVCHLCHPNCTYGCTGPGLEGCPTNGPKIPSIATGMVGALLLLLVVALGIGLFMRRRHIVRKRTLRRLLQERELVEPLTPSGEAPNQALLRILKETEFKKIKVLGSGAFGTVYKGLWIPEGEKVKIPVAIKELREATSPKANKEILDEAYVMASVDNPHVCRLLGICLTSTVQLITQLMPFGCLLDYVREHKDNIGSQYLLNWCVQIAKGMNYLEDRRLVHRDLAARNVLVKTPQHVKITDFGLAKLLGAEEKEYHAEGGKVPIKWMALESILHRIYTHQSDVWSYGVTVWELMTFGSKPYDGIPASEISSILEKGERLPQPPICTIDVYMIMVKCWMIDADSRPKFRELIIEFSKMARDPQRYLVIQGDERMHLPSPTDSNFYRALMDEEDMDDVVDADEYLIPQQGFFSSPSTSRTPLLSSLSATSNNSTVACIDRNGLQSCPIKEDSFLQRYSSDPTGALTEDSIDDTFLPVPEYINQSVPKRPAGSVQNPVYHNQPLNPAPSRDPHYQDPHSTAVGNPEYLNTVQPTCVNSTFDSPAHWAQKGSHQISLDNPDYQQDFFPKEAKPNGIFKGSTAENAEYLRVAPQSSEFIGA
IC50 [1] [µM],IC50 [2] [µM],IC50 [3] [µM],IC50 [4] [µM],Structure (SMILES)
1 to 3,< 1,< 0.5,< 0.5,"C#Cc1cc(=O)n(CC2CCCC2)c2nc(Nc3ccc(N4CCN(C)CC4)cc3)ncc12 [Example 67, 8-(Cyclopentylmethyl)-5-ethynyl-2-((4-(4-methylpiperazin-1-yl)phenyl)amino)pyrido[2,3-d]pyrimidin-7(8H)-one]"
1 to 3,< 1,0.5 to 1,< 0.5,"C#Cc1cc(=O)n(C2CCCCC2)c2nc(Nc3ccc(N4CCN(C)CC4)cc3)ncc12 [Example 68, 8-Cyclohexyl-5-ethynyl-2-((4-(4-methylpiperazin-1-yl)phenyl)amino)pyrido[2,3-d]pyrimidin-7(8H)-one]"
> 3,< 1,1 to 3,< 0.5,"C#Cc1cc(=O)n(C2CCOCC2)c2nc(Nc3ccc(N4CCN(C)CC4)cc3)ncc12 [Example 69, 5-Ethynyl-2-((4-(4-methylpiperazin-1-yl)phenyl)amino)-8-(tetrahydro-2H-pyran-4-yl)pyrido[2,3-d]pyrimidin-7(8H)-one]"
> 3,< 1,< 0.5,< 0.5,"C#Cc1cc(=O)n(CC2CCOC2)c2nc(Nc3ccc(N4CCN(C)CC4)cc3)ncc12 (stereo not shown) [Example 70, 5-Ethynyl-2-((4-(4-methylpiperazin-1-yl)phenyl)amino)-8-((tetrahydrofuran-3-yl)methyl)pyrido[2,3-d]pyrimidin-7(8H)-one]"
> 3,> 10,> 3,> 3,"C#Cc1cc(=O)n(C[C@@H]2CCC(=O)N2)c2nc(Nc3ccc(N4CCN(C)CC4)cc3)ncc12 [Example 71, (S)-5-Ethynyl-2-((4-(4-methylpiperazin-1-yl)phenyl)amino)-8-((5-oxopyrrolidin-2-yl)methyl)pyrido[2,3-d]pyrimidin-7(8H)-one]"
> 3,< 1,< 0.5,0.5 to 1,"C#Cc1cc(=O)n(CC2CCCO2)c2nc(Nc3ccc(N4CCN(C)CC4)cc3)ncc12 (stereo not shown) [Example 72, 5-Ethynyl-2-((4-(4-methylpiperazin-1-yl)phenyl)amino)-8-((tetrahydrofuran-2-yl)methyl)pyrido[2,3-d]pyrimidin-7(8H)-one]"
> 3,1 to 10,1 to 3,0.5 to 1,"C#Cc1cc(=O)n(C2CCCC2O)c2nc(Nc3ccc(N4CCN(C)CC4)cc3)ncc12 (stereo not shown) [Example 73, 5-Ethynyl-8-(2-hydroxycyclopentyl)-2-((4-(4-methylpiperazin-1-yl)phenyl)amino)pyrido[2,3-d]pyrimidin-7(8H)-one]"
> 3,< 1,0.5 to 1,< 0.5,"C#Cc1cc(=O)n(C(C)C)c2nc(Nc3ccc(N4CCN(C)CC4)cc3)ncc12 [Example 76, 5-Ethynyl-8-isopropyl-2-{[4-(4-methylpiperazin-1-yl)phenyl]amino}pyrido[2,3-d]pyrimidin-7-one]"
> 3,> 10,> 3,> 3,"C#Cc1cc(=O)n([C@@H]2CCCN(C(=O)CC)C2)c2nc(Nc3ccc(N(C)CCN(C)C)cc3)ncc12 [Example 77, (R)-2-((4-((2-(Dimethylamino)ethyl)(methyl)amino)phenyl)amino)-5-ethynyl-8-(1-propionylpiperidin-3-yl)pyrido[2,3-d]pyrimidin-7(8H)-one trifluoroacetic acid salt]"
> 3,< 1,< 0.5,< 0.5,"C#Cc1cc(=O)n(C2CCCC2)c2nc(Nc3ccc(N4CCN(C)CC4)cc3)ncc12 [Example 78, 8-cyclopentyl-5-ethynyl-2-((4-(4-methylpiperazin-1-yl)phenyl)amino)pyrido[2,3-d]pyrimidin-7(8H)-one]"
1 to 3,< 1,< 0.5,< 0.5,"C#Cc1cc(=O)n([C@H]2CC[C@@H](NC(C)=O)CC2)c2nc(Nc3ccc(N(C)CCN(C)C)cc3)ncc12 [Example 79, N-[(1s,4s)-4-{2-[(4-{[2-(Dimethylamino)ethyl](methyl)amino}phenyl)amino]-5-ethynyl-7-oxopyrido[2,3-d]pyrimidin-8-yl}cyclohexyl]acetamide]"
1 to 3,< 1,0.5 to 1,< 0.5,"C#Cc1cc(=O)n([C@H]2CC[C@@H](CO)CC2)c2nc(Nc3ccc(N(C)CCN(C)C)cc3)ncc12 [Example 80, 2-[(4-{[2-(Dimethylamino)ethyl](methyl)amino}phenyl)amino]-5-ethynyl-8-[(1s,4s)-4-(hydroxymethyl)cyclohexyl]pyrido[2,3-d]pyrimidin-7-one]"
> 3,< 1,< 0.5,< 0.5,"C#Cc1cc(=O)n([C@H]2CC[C@@H](NC(=O)CC)CC2)c2nc(Nc3ccc(N4CCN(C)CC4)cc3)ncc12 [Example 81, N-[(1s,4s)-4-(5-Ethynyl-2-{[4-(4-methylpiperazin-1-yl)phenyl]amino}-7-oxopyrido[2,3-d]pyrimidin-8-yl)cyclohexyl]propanamide]"
> 3,< 1,< 0.5,< 0.5,"C#Cc1cc(=O)n([C@H]2CC[C@@H](NC(=O)C(C)C)CC2)c2nc(Nc3ccc(N4CCN(C)CC4)cc3)ncc12 [Example 82, 2-Methyl-N-[(1s,4s)-4-(5-ethynyl-2-{[4-(4-methylpiperazin-1-yl)phenyl]amino}-7-oxopyrido[2,3-d]pyrimidin-8-yl)cyclohexyl]propanamide]"
1 to 3,< 1,0.5 to 1,< 0.5,"C#Cc1cc(=O)n(-c2ccc(OC)cc2OC)c2nc(Nc3ccc(N(C)CCN(C)C)cc3)ncc12 [Example 86, 8-(2,4-Dimethoxyphenyl)-2-[(4-{[2-(dimethylamino)ethyl](methyl)amino}phenyl)amino]-5-ethynylpyrido[2,3-d]pyrimidin-7-one]"
> 3,< 1,< 0.5,< 0.5,"C#Cc1cc(=O)n([C@H]2CC[C@H](NC(C)=O)CC2)c2nc(Nc3ccc(N4CCN(C)CC4)cc3)ncc12 [Example 87, N-[(1r,4r)-4-(5-Ethynyl-2-{[4-(4-methylpiperazin-1-yl)phenyl]amino}-7-oxopyrido[2,3-d]pyrimidin-8-yl)cyclohexyl]acetamide]"
> 3,1 to 10,> 3,> 3,"C#Cc1cc(=O)n(-c2ccc(NC(=O)C=C)cc2)c2nc(Nc3ccccc3OC)ncc12 [Example 88, N-(4-(5-Ethynyl-2-((2-methoxyphenyl)amino)-7-oxopyrido[2,3-d]pyrimidin-8(7H)-yl)phenyl)acrylamide]"
> 3,< 1,< 0.5,< 0.5,"C#Cc1cc(=O)n([C@H]2CC[C@H](NC(=O)c3ccnnc3)CC2)c2nc(Nc3ccc(N4CCN(C)CC4)cc3)ncc12 [Example 89, N-[(1r,4r)-4-(5-Ethynyl-2-{[4-(4-methylpiperazin-1-yl)phenyl]amino}-7-oxopyrido[2,3-d]pyrimidin-8-yl)cyclohexyl]pyridazine-4-carboxamide]"
> 3,1 to 10,> 3,1 to 3,"C#Cc1cc(=O)n([C@H]2CC[C@@H](NC(=O)CN(C)C)CC2)c2nc(Nc3ccccc3OC)ncc12 [Example 90, 2-(Dimethylamino)-N-[(1s,4s)-4-{5-ethynyl-2-[(2-methoxyphenyl)amino]-7-oxopyrido[2,3-d]pyrimidin-8-yl}cyclohexyl]acetamide]"
> 3,< 1,1 to 3,0.5 to 1,"C#Cc1cc(=O)n([C@H]2CC[C@@H](NC(=O)Cc3cn[nH]c3)CC2)c2nc(Nc3ccc(N4CCN(C)CC4)cc3)ncc12 [Example 91, 2-(1H-Pyrazol-4-yl)-N-[(1s,4s)-4-(5-ethynyl-2-{[4-(4-methylpiperazin-1-yl)phenyl]amino}-7-oxopyrido[2,3-d]pyrimidin-8-yl)cyclohexyl]acetamide]"
> 3,1 to 10,> 3,> 3,"C#Cc1cc(=O)n([C@H]2CC[C@@H](NC(=O)CCC(=O)OC)CC2)c2nc(Nc3ccc(N4CCN(C)CC4)cc3)ncc12 [Example 92, Methyl 4-(((1s,4s)-4-(5-ethynyl-2-((4-(4-methylpiperazin-1-yl)phenyl)amino)-7-oxopyrido[2,3-d]pyrimidin-8(7H)-yl)cyclohexyl)amino)-4-oxobutanoate]"
> 3,1 to 10,1 to 3,0.5 to 1,"C#Cc1cc(=O)n([C@H]2CC[C@@H](NC(=O)CCC(=O)N(C)C)CC2)c2nc(Nc3ccc(N4CCN(C)CC4)cc3)ncc12 [Example 93, N,N-Dimethyl-N′-[(1s,4s)-4-(5-ethynyl-2-{[4-(4-methylpiperazin-1-yl)phenyl]amino}-7-oxopyrido[2,3-d]pyrimidin-8-yl)cyclohexyl]succinamide]"
